Measurements reported in patent publication US8513423B2 (Janssen Pharmaceutica, NV, priority 2010, dated 2013).

How the values were obtained:
[1] = target: T1, MGL (Rattus norvegicus, UniProt Q8R431); test: 2-AG accumulation assay in rat brain homogenate; assay type: biochemical; conditions: compound @1 μM, read-out: Rat Brain 2AG % VehCntrl (%) @1 μM
T1 construct: one g rat brain was homogenized; from tissue; host or cells: rat brain homogenate
T1 sequence (Q8R431 1-303): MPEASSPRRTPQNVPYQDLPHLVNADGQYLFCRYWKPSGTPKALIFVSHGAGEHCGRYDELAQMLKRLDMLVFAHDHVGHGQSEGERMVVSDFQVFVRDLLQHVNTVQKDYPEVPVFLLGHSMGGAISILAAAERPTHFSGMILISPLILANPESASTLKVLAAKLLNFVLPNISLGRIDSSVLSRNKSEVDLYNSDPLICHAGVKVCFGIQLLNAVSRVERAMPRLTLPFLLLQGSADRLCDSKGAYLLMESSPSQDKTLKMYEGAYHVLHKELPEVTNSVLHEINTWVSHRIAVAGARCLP
Summary of the method: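 Rat brain homogenate was incubated with compound for 15 min at 37° C., after which CaCl2 was added to a final concentration of 10 mM. Incubation then continued for another 15 min at 37° C. in 5 mL total volume. Reactions were stopped by adding 6 mL of 2:1 chloroform/methanol. 2-AG in the organic phase was quantified by HPLC/MS.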

[2] = system: CFA-induced paw radiant heat hypersensitivity; test: CFA-induced paw radiant heat hypersensitivity; assay type: in vivo; conditions: rat; 30 mg/kg, p.o.; last time point 300 min; group mean values, maximum % reversal at any time point
Protocol: Each rat was placed in a test chamber on a warm glass surface and allowed to acclimate for approximately 10 min. A radiant thermal stimulus (beam of light) was focused through the glass onto the plantar surface of each hind paw in turn. The thermal stimulus was automatically shut off by a photoelectric relay when the paw was moved or when the cut-off time was reached (20 sec for radiant heat at ˜5 amps). An initial (baseline) response latency to the thermal stimulus was recorded for each animal prior to the injection of complete Freund's adjuvant (CFA). Twenty-four hours following intraplantar CFA injection, the response latency of the animal to the thermal stimulus was re-evaluated and compared to the animal's baseline response time. […] Post-compound treatment withdrawal latency was assessed at fixed time intervals, typically 30, 60, 120, 180, and 300 min.
The percent reversal (% R) of hypersensitivity was calculated in one of two different ways: 1) using group mean values or 2) using individual animal values. […]
Method 1. For all compounds, the % R of hypersensitivity was calculated using the mean value for groups of animals at each time point according to the following formula: % reversal=[(group treatment response−group CFA response)/(group baseline response−group CFA response)]×100 Results are given for the maximum % reversal observed for each compound at any time point tested. […]

2-AG accumulation, percent of vehicle control at 1 µM [1] [%]	Structure (SMILES)	Method 1: peak % reversal [2] [%]
800	O=C(c1nccs1)N1CCC(C2CN(C(=O)c3sc4cc(C(F)(F)F)ccc4c3Cl)C2)CC1 [Cpd 29, 4-(1-{[3-Chloro-6-(trifluoromethyl)-1-benzothiophen-2-yl]carbonyl}azetidin-3-yl)-1-(1,3-thiazol-2-ylcarbonyl)piperidine]	17.9
728	Cc1c(C(=O)N2CC(C3CCN(C(=O)c4nccs4)CC3)C2)sc2cc(C(F)(F)F)ccc12 [Cpd 20, 4-(1-{[3-Methyl-6-(trifluoromethyl)-1-benzothiophen-2-yl]carbonyl}azetidin-3-yl)-1-(1,3-thiazol-2-ylcarbonyl)piperidine]	−6.7
